Test results as given in patent US20050215529A1, “Method of treating oxidative stress-associated conditions with isopentenyl diphosphate” (THE REGENTS OF THE UNIVERSITY OF MICHIGAN, priority 2004, published 2005).

Tests used:
[1] = tested on: human fibroblastoid M1 cells; experiment: Comet assay, inhibition of 2CA- or IPP-mediated DNA damage protection by antagonists/inhibitors; format: cell-based; settings: for effect on 2CA-mediated DNA damage protection / effect on IPP-mediated DNA damage protection: M1 cells pre-incubated with antagonist/inhibitor (lactacystin 5 μM, lovastatin 5 μM, GGTI-2147 0.2 μM, FTI-277 1 μM; others various concentrations), then 100 μM H2O2; for effect on 2CA-mediated DNA damage protection: then 2CA; for IC50: AR antagonists, M1 cells, 100 μM H2O2, Comet assay, read-out: IC50 (pM), block of 2CA-mediated DNA damage protection; for effect on IPP-mediated DNA damage protection: then IPP
Procedure: (§1) A single-cell gel electrophoresis (SCGE) assay, known as the “Comer” assay was performed to detect/quantify DNA damage by identifying DNA-strand breakage in individual cells, for example. The assay was performed using a kit commercially-available from Trevigen, Inc., of Gaithersburg, Md., as “CometAssay™.” See P. J. McCarthy et al. (1997) Mutagenesis 12:209-214; A. R. Collins et al. (2001) Biochem. Soc. Trans. 29:337-341. Sub-confluent cells were washed with phosphate buffered saline (PBS) and detached from the tissue culture flasks using a 0.05% trypsin solution. After centrifugation, the cells were washed and re-suspended in serum-free DMEM medium. The cells were divided into Eppendorf tubes (1.5 ml), and centrifuged at 2500 rotations per minutes (rpm) for ten minutes. Signal-modulating agents were added and samples were kept in a 37° C. incubator for thirty minutes. In some experiments, the cells were pre-incubated with various inhibitors for the indicated times at 37° C. At the end of the incubation period with signal-modulating chemicals, the cells were washed with PBS and treated with 100 μM H2O2 in 0.5 ml PBS on ice for twenty minutes. Following the hydrogen peroxide treatment, the cells were immediately microfuged for fifteen seconds. The cells were twice washed with cold PBS, and re-suspended at 1.0×10^5 cells/ml in ice-cold PBS. Five microliter cell suspension were each mixed with 50 μl molten LMAgarose and, thereafter, the mixtures were placed onto slides (CometSlide™).
(§2) The slides were placed at 4° C. in the dark for ten minutes and subsequently immersed in pre-chilled Lysis Solution at 4° C. for an additional thirty minutes. Following this incubation, excess buffer was tapped off from the slides. Subsequently, the slides were placed in a 50 ml Coplin jar containing alkali buffer for thirty minutes at room temperature in the dark and then immersed in 50 ml of TBE buffer for five minutes. The slides were then placed flat onto a gel tray submerged in TBE buffer in a horizontal electrophoresis apparatus, and aligned equidistant from the electrodes. Electrophoresis was performed at one volt per centimeter (cm) for ten minutes. Following this electrophoresis, the samples were fixed in 100% methanol for five minutes and 100% ethanol for five minutes. After drying, 50 μl of diluted SYBR Green Concentrate was added onto each circle of agarose. Comet tail fluorescence intensity was quantified with a Diagnostic Instruments digitized camera, mounted on a Nikon Eclipse E400 microscope, using Scion Image software. Quantification of comet fluorescence was performed as described in P. J. McCarthy et al. (1997) Mutagenesis 12:209-214. Each data point was derived from 30 to 100 individual cells. The data are shown either in arbitrary fluorescent units, or as % DNA damage protection (i.e., the percent decrement in tail fluorescence intensity with test reagent, relative to the intensity recorded in cells treated with hydrogen peroxide only)±S.E.M.
Specifically, […], human fibroblastoid M1 cells were incubated for thirty minutes in either H-89 or 8-bromoguanosine-3′,5′-cyclic monophosphate (8-Br-cGMP) (B), or for fifteen minutes in SNAP, at different concentrations. […] Following induction of oxidative stress, DNA damage was quantified using the Comet assay, as described above. Shown in FIGS. 14-16 are graphs illustrating the DNA damage protection as function of the molar concentration of H-89 (FIG. 14), 8-Br-cGMP (FIG. 15), and SNAP (FIG. 16).
In yet another test, human fibroblastoid M1 cells were pre-incubated for fifteen minutes with different concentrations of the A2bAR antagonist, enprofylline (Enpro).

[2] = tested on: human fibroblastoid M1 cells; experiment: Comet assay, protection against H2O2-induced DNA damage; format: cell-based; settings: M1 cells; for IC50: AR agonists and isoprenyls, 100 μM H2O2, Comet assay, read-out: IC50 (pM), DNA damage protection; for triggering of DNA damage protection: various concentrations, 100 μM H2O2
Procedure: as §1, §2
A dose response analysis of DNA damage protection also was performed to determine the efficacy of various doses of isopentenyl diphosphate versus 2-chloroadenosine. The analysis was carried out by pre-incubating human fibroblastoid M1 cells for thirty minutes with different concentrations of isopentenyl diphosphate or 2-chloroadenosine prior to incubating the cells with 100 μM H2O2 to induce oxidative stress. Following induction of oxidative stress, DNA damage was quantified using the Comet assay, as described above.

[3] = tested on: A1AR-transfected HEK293 cells; experiment: Comet assay in A1AR-transfected HEK293 cells; format: cell-based, human; settings: A1AR-transfected HEK293 cells, 100 μM H2O2
Procedure: A single-cell gel electrophoresis (SCGE) assay, known as the “Comer” assay was performed to detect/quantify DNA damage by identifying DNA-strand breakage in individual cells, for example. The assay was performed using a kit commercially-available from Trevigen, Inc., of Gaithersburg, Md., as “CometAssay™.” See P. J. McCarthy et al. (1997) Mutagenesis 12:209-214; A. R. Collins et al. (2001) Biochem. Soc. Trans. 29:337-341. Sub-confluent cells were washed with phosphate buffered saline (PBS) and detached from the tissue culture flasks using a 0.05% trypsin solution. After centrifugation, the cells were washed and re-suspended in serum-free DMEM medium. The cells were divided into Eppendorf tubes (1.5 ml), and centrifuged at 2500 rotations per minutes (rpm) for ten minutes. Signal-modulating agents were added and samples were kept in a 37° C. incubator for thirty minutes. In some experiments, the cells were pre-incubated with various inhibitors for the indicated times at 37° C. At the end of the incubation period with signal-modulating chemicals, the cells were washed with PBS and treated with 100 μM H2O2 in 0.5 ml PBS on ice for twenty minutes. Following the hydrogen peroxide treatment, the cells were immediately microfuged for fifteen seconds. The cells were twice washed with cold PBS, and re-suspended at 1.0×10^5 cells/ml in ice-cold PBS. […]
The slides were placed at 4° C. in the dark for ten minutes and subsequently immersed in pre-chilled Lysis Solution at 4° C. for an additional thirty minutes. […] Comet tail fluorescence intensity was quantified with a Diagnostic Instruments digitized camera, mounted on a Nikon Eclipse E400 microscope, using Scion Image software. Quantification of comet fluorescence was performed as described in P. J. McCarthy et al. (1997) Mutagenesis 12:209-214. […] The data are shown either in arbitrary fluorescent units, or as % DNA damage protection (i.e., the percent decrement in tail fluorescence intensity with test reagent, relative to the intensity recorded in cells treated with hydrogen peroxide only)±S.E.M. […]

In the case of `CC(=O)N[C@@H](C(=O)O)C(C)(C)SN=O` (racemic) [SNAP], the “effect on 2CA-mediated DNA damage protection” value [1] is reported as “dose-dependent inhibition of 2CA-mediated antioxidative signal”.

Compound `CC(C)=CCC/C(C)=C/CC/C(C)=C/CO[P@@](=O)(O)OP(=O)(O)O` (stereo in doubt) [FPP, farnesyl diphosphate] has an IC50 ([2]; Homo sapiens) greater than 1e+07 pM.

`Nc1ncnc2c1nc(Br)n2[C@@H]1O[C@@H]2COP(=O)(O)O[C@H]2[C@H]1O` [8-Br-cAMP, 8-bromo adenosine 3′,5′-cyclic monophosphate] was tested, and the “triggering of DNA damage protection” value [2] was “produced similar protection against oxidative DNA damage” and the “DNA damage protection response” value [3] was “responded efficiently”.

For `Nc1nc2c(nc(Br)n2[C@@H]2O[C@@H]3COP(=O)(O)O[C@H]3[C@H]2O)c(=O)[nH]1` [8-Br-cGMP, 8-bromoguanosine-3′,5′-cyclic monophosphate], the “effect on 2CA-mediated DNA damage protection” value [1] was “dose-dependent inhibition of 2CA-mediated antioxidative signal”.

For `CCNC(=O)[C@H]1O[C@@H](n2cnc3c(N)nc(NCCc4ccc(CCC(=O)O)cc4)nc32)[C@H](O)[C@@H]1O` [CGS21680, 2-[p-2-(carbonyl-ethyl)-phenyethylamino]-5′-N-ethylcarboxaminoadenosine], the IC50 ([2]; Homo sapiens) was greater than 3e+07 pM and the “triggering of DNA damage protection” value [2] was “failed to transduce the signal”.

For `Cn1c(=O)c2c(nc(C=Cc3cccc(Cl)c3)n2C)n(C)c1=O` [CSC, 8-(3-chlorostyryl) caffeine], the IC50 ([1]; Homo sapiens) was greater than 1e+07 pM and the “effect on 2CA-mediated DNA damage protection” value [1] was “failed to block 2CA-mediated DNA damage protection”.

`CCCn1c(=O)c2[nH]c(C3CCCC3)nc2n(CCC)c1=O` [DPCPX, [(3)H]1,3-dipropyl-8-cyclopentylxanthine] was tested, and the IC50 [1] was greater than 1e+07 pM and the “effect on 2CA-mediated DNA damage protection” value [1] was “failed to block 2CA-mediated DNA damage protection”.

In the case of `CCCn1c(=O)[nH]c(=O)c2nc[nH]c21` [Enprofylline, enprofylline], the IC50 [1] is reported as 1.8e+06 pM, the “effect on 2CA-mediated DNA damage protection” value [1] is reported as “effectively blocked the signal” and the “effect on IPP-mediated DNA damage protection” value [1] is reported as “the IPP-mediated effect was resistant”.

With `COC(=O)[C@H](CCSC)NC(=O)c1ccc(NC[C@@H](N)CS)cc1-c1ccccc1` [FTI-277] the “effect on 2CA-mediated DNA damage protection” value [1] was “Neither GGTI-2147 (FIG. 24B) nor FTI-277 (FIG. 25) had a significant effect” and the “effect on IPP-mediated DNA damage protection” value [1] was “had no effect on isopentenyl diphosphate activity”.

For `CC(C)=CCC/C(C)=C/CC/C(C)=C/CC/C(C)=C/COP(=O)(O)OP(=O)(O)O` [GGPP, geranylgeranyl diphosphate], the IC50 [2] was 660 pM and the “triggering of DNA damage protection” value [2] was “effective in triggering antioxidative activity”.

In the case of `COC(=O)[C@H](CC(C)C)NC(=O)c1ccc(NCc2cnc[nH]2)cc1-c1cccc2ccccc12` [GGTI-2147], the “effect on 2CA-mediated DNA damage protection” value [1] is reported as “Neither GGTI-2147 (FIG. 24B) nor FTI-277 (FIG. 25) had a significant effect” and the “effect on IPP-mediated DNA damage protection” value [1] is reported as “effectively blocked IPP-mediated DNA damage protection”.

In the case of `O=S(=O)(NCCNCC=Cc1ccc(Br)cc1)c1cccc2cnccc12` [H-89, N-[2-(p-bromocynnamylamino)ethyl]-5-isoquinolinesulfonamide], the “effect on 2CA-mediated DNA damage protection” value [1] is reported as “dose-dependent inhibition of 2CA-mediated antioxidative signal” and the “effect on IPP-mediated DNA damage protection” value [1] is reported as “the IPP-mediated effect was resistant”.

`CNC(=O)[C@H]1O[C@@H](n2cnc3c(NCc4cccc(I)c4)ncnc32)[C@H](O)[C@@H]1O` [IB-MECA, N6-(3-iodobenzyl)adenosine-5′-N-methyluronamide] was tested, and the IC50 [2] was greater than 1e+07 pM and the “triggering of DNA damage protection” value [2] was “failed to transduce the signal”.

For `C=C(C)CCOP(=O)(O)O` [IMP, isopentenyl monophosphate], the IC50 [2] was greater than 1e+07 pM and the “triggering of DNA damage protection” value [2] was “failed to trigger antioxidative signaling”.

With `CCNC(=O)C1OC(n2cnc3c(N)ncnc32)C(O)C1O` (centres unmarked) [NECA, 5′-(N-ethylcarboxyamido)-adenosine] the IC50 [2] was less than 1000 pM and the “triggering of DNA damage protection” value [2] was “triggered DNA damage protection”.

For `CCCCC[C@H](O)/C=C/[C@H]1[C@H](O)CC(=O)[C@@H]1CCCCCCC(=O)O` [PGE1, Prostaglandin E1], the “triggering of DNA damage protection” value [2] was “induction of resistance to oxidative DNA damage”.

In the case of `CCCn1c(=O)c2[nH]c(-c3ccc(OCC(=O)NCCN)cc3)nc2n(CCC)c1=O` [XAC, xanthine amine congener], the IC50 [1] is reported as 3.2e+06 pM and the “effect on 2CA-mediated DNA damage protection” value [1] is reported as “effectively blocked the signal”.

In the case of `CC(=O)N[C@@H](CSC(=O)[C@]1([C@@H](O)C(C)C)NC(=O)[C@H](C)[C@@H]1O)C(=O)O` [lactacystin], the “effect on 2CA-mediated DNA damage protection” value [1] is reported as “did not similarly block 2CA-mediated DNA damage protection signaling” and the “effect on IPP-mediated DNA damage protection” value [1] is reported as “blocked IPP-mediated DNA damage protection signaling”.

With `CC[C@H](C)C(=O)O[C@H]1C[C@@H](C)C=C2C=C[C@H](C)[C@H](CC[C@@H]3C[C@@H](O)CC(=O)O3)[C@H]21` [lovastatin] the “effect on 2CA-mediated DNA damage protection” value [1] was “did not similarly block 2CA-mediated DNA damage protection signaling” and the “effect on IPP-mediated DNA damage protection” value [1] was “completely blocked IPP-mediated DNA damage protection signaling”.
